Assay results published in ChEMBL document CHEMBL5532655, “Discovery of (R)-4-(8-methoxy-2-methyl-1-(1-phenylethy)-1H-imidazo[4,5-c]quinnolin-7-yl)-3,5-dimethylisoxazole as a potent and selective BET inhibitor for treatment of acute myeloid leukemia (AML) guided by FEP calculation” (Eur J Med Chem, 2024).
Values belong to the compound of their own block, whether it stands above or below them. Calls of active or inactive are those of the source. The rule behind the calls is not given here.

Key:
[1] = species on record: Homo sapiens; experiment: Binding affinity to PHIP2 (unknown origin) using biotinylated histone peptide H4 as substrate at 1 uM incubated for 2 hrs by AlphaScreen assay relative to control
[2] = target: T1, Transcription intermediary factor 1-alpha (Homo sapiens) (UniProt O15164); experiment: Binding affinity to TRIM24 (unknown origin) using biotinylated histone peptide H4 as substrate at 1 uM incubated for 2 hrs by AlphaScreen assay relative to control
T1 sequence (whole entry): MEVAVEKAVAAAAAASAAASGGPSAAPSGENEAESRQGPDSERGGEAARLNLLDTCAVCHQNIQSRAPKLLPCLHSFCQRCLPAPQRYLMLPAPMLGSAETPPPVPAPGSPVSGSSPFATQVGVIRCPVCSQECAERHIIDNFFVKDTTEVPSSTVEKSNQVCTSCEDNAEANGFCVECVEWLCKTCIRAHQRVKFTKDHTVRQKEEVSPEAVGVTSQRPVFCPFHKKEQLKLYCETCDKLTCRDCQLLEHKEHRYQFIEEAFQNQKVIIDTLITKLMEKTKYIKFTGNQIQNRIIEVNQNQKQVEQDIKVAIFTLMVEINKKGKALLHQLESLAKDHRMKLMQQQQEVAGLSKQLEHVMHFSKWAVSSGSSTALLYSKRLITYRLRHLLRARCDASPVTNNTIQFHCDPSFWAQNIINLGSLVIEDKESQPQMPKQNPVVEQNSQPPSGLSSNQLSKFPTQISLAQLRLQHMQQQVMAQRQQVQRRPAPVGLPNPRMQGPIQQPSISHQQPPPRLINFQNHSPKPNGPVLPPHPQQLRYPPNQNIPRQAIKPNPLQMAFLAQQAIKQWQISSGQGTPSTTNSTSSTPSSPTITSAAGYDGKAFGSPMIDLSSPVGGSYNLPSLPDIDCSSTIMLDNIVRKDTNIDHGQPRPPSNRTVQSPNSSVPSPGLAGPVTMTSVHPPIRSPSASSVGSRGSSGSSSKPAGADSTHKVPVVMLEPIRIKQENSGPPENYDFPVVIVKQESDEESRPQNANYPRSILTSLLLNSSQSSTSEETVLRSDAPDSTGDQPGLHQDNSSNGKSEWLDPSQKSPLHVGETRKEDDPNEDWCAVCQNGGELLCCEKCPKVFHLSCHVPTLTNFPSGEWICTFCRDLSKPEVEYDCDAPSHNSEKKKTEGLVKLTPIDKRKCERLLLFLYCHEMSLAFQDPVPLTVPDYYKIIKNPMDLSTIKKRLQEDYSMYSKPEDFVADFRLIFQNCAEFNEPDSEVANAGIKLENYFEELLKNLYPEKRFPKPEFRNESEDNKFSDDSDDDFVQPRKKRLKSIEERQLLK

[3] = target: T1, Transcription intermediary factor 1-alpha (Homo sapiens); conditions: time 30.0 min
[4] = tested on: MV4-11; experiment: Induction of apoptosis in human MV4-11 cells assessed as upregulation of p21 expression at 500 nM hrs by Western blotting analysis; type: functional, cell-based; conditions: TDE = time-dependent effect
[5] = tested on: MV4-11; experiment: Induction of apoptosis in human MV4-11 cells assessed as early apoptotic cells at 2.5 uM incubated for 24 hrs by annexin V-FITC/PI staining based flow cytometric analysis (reference value: 0%); type: functional
[6] = MRTinfinity in Sprague-Dawley rat at 1 mg/kg,iv administration measured upto 24 hrs by LC-MS/MS analysis; type: ADME, organism-based; conditions: in vivo
[7] = Half life in Sprague-Dawley rat at 1 mg/kg,iv administration measured upto 24 hrs by LC-MS/MS analysis; type: ADME, organism-based; conditions: in vivo
[8] = tested on: MV4-11; experiment: Induction of apoptosis in human MV4-11 cells assessed as late apoptotic cells at 2.5 uM incubated for 24 hrs by annexin V-FITC/PI staining based flow cytometric analysis (reference value: 0.04 %); type: functional
[9] = Half life in Sprague-Dawley rat at 10 mg/kg,po administration measured upto 24 hrs by LC-MS/MS analysis; type: ADME, organism-based; conditions: in vivo
[10] = tested on: MV4-11; experiment: Induction of apoptosis in human MV4-11 cells assessed as viable cells at 0.625 uM incubated for 24 hrs by annexin V-FITC/PI staining based flow cytometric analysis (reference value: 97%); type: functional; conditions: Homo sapiens, MV4-11, read-out: Activity
[11] = tested on: MV4-11; experiment: Induction of apoptosis in human MV4-11 cells assessed as downregulation of c-Myc expression at 500 nM hrs by Western blotting analysis; type: functional, cell-based; conditions: TDE = time-dependent effect
[12] = tested on: MV4-11; experiment: Induction of cell cycle arrest in human MV4-11 cells assessed as accumulation of cells at S phase at 1.25 uM incubated for 24 hrs by propidium iodide staining flow cytometric analysis (reference value: 43.94 %); type: functional
[13] = tested on: MV4-11; experiment: Induction of apoptosis in human MV4-11 cells assessed as upregulation of cleaved PARP expression at 0.3125 to 2.5 uM incubated for 48 hrs by Western blotting analysis; type: functional, cell-based; conditions: dose 0.3125-2.5 µM
[14] = tested on: MV4-11; experiment: Induction of cell cycle arrest in human MV4-11 cells assessed as accumulation of cells at G2/M phase at 5 uM incubated for 24 hrs by propidium iodide staining flow cytometric analysis (reference value: 18 %); type: functional
[15] = Cmax in Sprague-Dawley rat at 10 mg/kg,po administration measured upto 24 hrs by LC-MS/MS analysis; type: ADME, organism-based; conditions: in vivo
[16] = tested on: MV4-11; experiment: Induction of apoptosis in human MV4-11 cells assessed as late apoptotic cells at 0.625 uM incubated for 24 hrs by annexin V-FITC/PI staining based flow cytometric analysis (reference value: 0.04 %); type: functional
[17] = tested on: MV4-11; experiment: Induction of apoptosis in human MV4-11 cells assessed as upregulation of PARP expression at 500 nM hrs by Western blotting analysis; type: functional, cell-based; conditions: TDE = time-dependent effect
[18] = tested on: MV4-11; experiment: Antitumor activity against human MV4-11 cells xenografted in BALB/c mouse assessed as tumor growth inhibition at 50 mg/kg administration relative to control; type: functional; conditions: read-out: TGI
[19] = tested on: MV4-11; experiment: Induction of apoptosis in human MV4-11 cells assessed as downregulation of CDK6 expression at 500 nM hrs by Western blotting analysis; type: functional, cell-based; conditions: TDE = time-dependent effect
[20] = MRTinfinity in Sprague-Dawley rat at 10 mg/kg,po administration measured upto 24 hrs by LC-MS/MS analysis; type: ADME, organism-based; conditions: in vivo
[21] = Apparent oral clearance in Sprague-Dawley rat at 10 mg/kg,po administration measured upto 24 hrs by LC-MS/MS analysis; type: ADME, organism-based; conditions: in vivo
[22] = tested on: MV4-11; experiment: Induction of cell cycle arrest in human MV4-11 cells assessed as accumulation of cells at G2/M phase at 1.25 uM incubated for 24 hrs by propidium iodide staining flow cytometric analysis (reference value: 18 %); type: functional
[23] = tested on: MV4-11; experiment: Induction of apoptosis in human MV4-11 cells assessed as early apoptotic cells at 1.25 uM incubated for 24 hrs by annexin V-FITC/PI staining based flow cytometric analysis (reference value: 0%); type: functional
[24] = tested on: MV4-11; experiment: Induction of apoptosis in human MV4-11 cells assessed as upregulation of p21 expression at 0.3125 to 2.5 uM incubated for 48 hrs by Western blotting analysis; type: functional, cell-based; conditions: dose 0.3125-2.5 µM
[25] = tested on: MV4-11; experiment: Induction of apoptosis in human MV4-11 cells assessed as downregulation of c-Myc expression incubated for 48 hrs by Western blotting analysis; type: functional, cell-based

Activity [1]: < 30% | Activity [2]: < 30% | ΔTm [3]: 0 °C
SMILES: COc1cc2c(cc1-c1c(C)n[nH]c1C)ncc1nc(C)n([C@H](C)c3ccccc3)c12

MRT inf [6]: 0.84 h | half-life [7]: 0.7 h | half-life [9]: 2.65 h | Activity [1]: < 30% | Cmax [15]: 1780 ng/mL | Activity [2]: < 30% | MRT inf [20]: 5.86 h | CL/F [21]: 10.4 mL/min/kg | ΔTm [3]: 0 °C
SMILES: COc1cc2c(cc1-c1c(C)noc1C)ncc1nc(C)n([C@H](C)c3ccccc3)c12
Activity [4]: Tde | Activity [5]: 8.72% | Activity [8]: 9.68% | viability at 0.625 µM [10]: 68.2% | Activity [11]: Tde | Activity [12]: 23.31% | Activity [13]: Active | Activity [14]: 3.63% | Activity [16]: 4.8% | Activity [17]: Tde | inhibition in vivo at 50 mg/kg [18]: 70.4% | Activity [19]: Tde | Activity [22]: 5.16% | Activity [23]: 6.62% | Activity [24]: Active | Activity [25]: Dose-Dependent Effect
